Structures can show the parent of a compound that is named as a salt.
biological target: T1, human recombinant 6His-Nterm SHP2 full-length (Thr2-Arg593) (Homo sapiens, UniProt Q06124); test: SHP2 Phosphatase Assay (DiFMUP fluorescence); type: biochemical; details: SHP2 0.2 nM pre-incubated with 100 nM bi-phosphorylated activating peptide; compound 1000-0.05 nM, 30 min pre-incubation; DiFMUP 20 µM, 45 min, room temperature; 10-concentration dose-response
T1 construct: 6His-Nterm SHP2 full-length (Thr2-Arg593, R&D system); 6His (N); purchased R&D system
T1 sequence (Q06124 2-593): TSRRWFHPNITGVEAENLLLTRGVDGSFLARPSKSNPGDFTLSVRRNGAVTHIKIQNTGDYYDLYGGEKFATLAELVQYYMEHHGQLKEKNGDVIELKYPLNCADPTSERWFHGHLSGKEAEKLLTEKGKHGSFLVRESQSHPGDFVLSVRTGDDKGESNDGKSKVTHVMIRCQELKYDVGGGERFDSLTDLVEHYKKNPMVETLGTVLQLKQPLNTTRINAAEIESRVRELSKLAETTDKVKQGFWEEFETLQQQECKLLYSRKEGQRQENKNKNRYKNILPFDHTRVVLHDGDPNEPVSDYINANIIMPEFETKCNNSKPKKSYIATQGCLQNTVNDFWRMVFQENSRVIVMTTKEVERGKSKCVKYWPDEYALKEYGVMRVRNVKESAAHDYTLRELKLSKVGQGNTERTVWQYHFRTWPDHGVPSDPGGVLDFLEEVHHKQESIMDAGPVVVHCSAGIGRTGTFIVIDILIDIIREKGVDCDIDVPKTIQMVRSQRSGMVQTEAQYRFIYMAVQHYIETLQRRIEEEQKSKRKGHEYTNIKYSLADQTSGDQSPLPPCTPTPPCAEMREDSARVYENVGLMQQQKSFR
In short: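 SHP2 (0.2 nM) preactivated ≥10 min with 100 nM bis-phosphorylated peptide, then 30 min with compound (10 concentrations, 1000–0.05 nM) at room temperature, pH 7.2 HEPES buffer with DTT. DiFMUP (20 µM, added solution) reacted 45 min, pervanadate-stopped; fluorescence 350/450 nm. IC50 by 4-parameter logistic fit.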

**Q.** Which IC50 does the source give for `COc1ccc2c(c1)[C@@H](N)C1(CCN(c3nc(C)c(-c4ccnc(C)c4F)n4nccc34)CC1)C2` [Compound 118, (1S)-1'-[7-(3-fluoro-2-methyl-4-pyridyl)-6-methyl-pyrazolo[1,5-a]pyrazin-4-yl]-6-methoxy-spiro [indane-2,4'-piperidine]-1-amine hydrochloride] here?
**A.** 0.004 µM

**Q.** `Cc1nc(N2CCC3(CC2)Cc2ncccc2[C@H]3N)c2ccnn2c1-c1cccc(C(F)(F)F)c1F` [Compound 174, (5S)-1'-[7-[2-fluoro-3-(trifluoromethyl)phenyl] -6-methyl-pyrazolo[1,5-a]pyrazin-4-yl]spiro[5,7-dihydrocyclopenta[b]pyridine-6,4'-piperidine]-5-amine] was tested. Which IC50 did it give?
**A.** 0.005 µM

**Q.** `COc1cc2c(cn1)[C@@H](N)C1(CCN(c3nc(C)c(-c4ccccc4F)n4nccc34)CC1)C2` [Compound 122, (7S)-1''-[7-(2-fluorophenyl)-6-methyl-pyrazolo[1,5-a]pyrazin-4-yl] -3-methoxy-spiro [5,7-dihydrocyclopenta[c]pyridine-6,4'-piperidine]-7-amine] was tested. Which IC50 did it give?
**A.** 0.012 µM

**Q.** With `Cc1nc(N2CCC3(CC2)Oc2ccccc2[C@H]3N)c2ccnn2c1-c1cccc(Cl)c1Cl` [Compound 19, (3R)-1'-[7-(2,3-dichlorophenyl)-6-methyl-pyrazolo [1 ,5-a]pyrazin-4-yl]spiro[3H-benzofuran-2,4'-piperidine]-3-amine] as the compound, how does the IC50 read?
**A.** 0.102 µM

**Q.** How did the IC50 turn out when `Cc1nc(N2CCC3(CC2)Cc2ncccc2[C@@H]3N)c2ccnn2c1-c1ccccc1` [Compound 141, (5R)-1'-(6-methyl-7-phenyl-pyrazolo[1,5-a]pyrazin-4-yl)spiro[5,7-dihydrocyclopenta[b]pyridine-6,4'-piperidine]-5-amine] was run?
**A.** 0.853 µM

**Q.** Which IC50 does the source give for `Cc1nc(N2CCC3(CC2)Cc2ccc(F)cc2[C@H]3N)c2ccnn2c1-c1cnn(C)c1C` [Compound 103, (1S)-1'-[7-(1,5-dimethylpyrazol-4-yl)-6-methyl-pyrazolo[1,5-a]pyrazin-4-yl]-6-fluoro-spiro [indane-2,4'-piperidine]-1-amine hydrochloride] here?
**A.** 0.012 µM

**Q.** `Cc1cc2c(cn1)[C@@H](N)C1(CCN(c3nc(C)c(-c4ccccc4F)n4nccc34)CC1)C2` [Compound 60, (7S)-1'-[7-(2-fluorophenyl)-6-methyl-pyrazolo[1,5-a]pyrazin-4-yl]-3-methyl-spiro[5,7-dihydrocyclopenta[c]pyridine-6,4'-piperidine]-7-amine] was tested. Which IC50 did it give?
**A.** 0.007 µM

**Q.** With `Cc1nc2c(s1)CC1(CCN(c3nc(C)c(-c4ccnc(C)c4Cl)n4nccc34)CC1)[C@@H]2N` [Compound 105, (4S)-1'-[7-(3-chloro-2-methyl-4-pyridyl)-6-methyl-pyrazolo[1,5-a]pyrazin-4-yl]-2-methyl-spiro[4,6-dihydrocyclopenta[d]thiazole-5,4'-piperidine]-4-amine hydrochloride] as the compound, how does the IC50 read?
**A.** 0.006 µM

**Q.** Which IC50 does the source give for `Cc1nc(N2CCC3(CC2)Cc2ncccc2[C@H]3N)c2ccnn2c1-c1cccs1` [Compound 99, (5S)-1'-[6-methyl-7-(2-thienyl)pyrazolo[1,5-a]pyrazin-4-yl]spiro [5,7-dihydrocyclopenta[b]pyridine-6,4'-piperidine]-5-amine hydrochloride] here?
**A.** 0.009 µM

**Q.** Which IC50 does the source give for `Cc1nc(N2CCC3(CC2)Cc2ncccc2[C@H]3N)c2ccnn2c1-c1ccc2nccnc2c1F` [Compound 78, (5S)-1'-[7-(5-fluoroquinoxalin-6-yl)-6-methyl-pyrazolo[1,5-a]pyrazin-4-yl]spiro [5,7-dihydrocyclopenta[b]pyridine-6,4'-piperidine] -5-amine hydrochloride] here?
**A.** 0.012 µM

**Q.** `Cc1nc(N2CCC3(CC2)Cc2cccnc2[C@H]3N)c2ccnn2c1-c1cnn(C)c1C` [Compound 130, (7S)-1'-[7-(1,5-dimethylpyrazol-4-yl)-6-methyl-pyrazolo[1,5-a]pyrazin-4-yl]spiro[5,7-dihydrocyclopenta[b]pyridine-6,4'-piperidine]-7-amine] was tested. Which IC50 did it give?
**A.** 0.06 µM

**Q.** `Cc1nc(N2CCC3(CC2)Cc2ccccc2[C@H]3N)c2ccnn2c1-c1cnn(C)c1C` [Compound 149, (1S)-1'-[7-(1,5-dimethylpyrazol-4-yl)-6-methyl-pyrazolo[1,5-a]pyrazin-4-yl]spiro[indane-2,4'-piperidine]-1-amine] was tested. Which IC50 did it give?
**A.** 0.017 µM

**Q.** For `COc1ccc2c(c1)[C@@H](N)C1(CCN(c3nc(C)c(-c4cnn(C)c4Cl)n4nccc34)CC1)C2` [Compound 126, (1S)-1'-[7-(5-chloro-1-methyl-pyrazol-4-yl)-6-methyl-pyrazolo[1,5-a]pyrazin-4-yl] -6-methoxy-spiro[indane-2,4'-piperidine]-1-amine hydrochloride], which IC50 is on record?
**A.** 0.004 µM

**Q.** `Cc1nc(N2CCC3(CC2)Cc2ncccc2[C@H]3N)c2ccnn2c1Sc1ccnc(N)c1Cl` [Compound 232, (5S)-1'-[7-[(2-amino-3-chloro-4-pyridyl)sulfanyl]-6-methyl-pyrazolo[1,5-a]pyrazin-4-yl]spiro[5,7-dihydrocyclopenta[b]pyridine-6,4'-piperidine]-5-amine] was tested. Which IC50 did it give?
**A.** 0.004 µM

**Q.** How did the IC50 turn out when `Cc1nc(N2CCC3(CC2)Cc2ncccc2[C@H]3N)c2ccnn2c1-c1ccc(N(C)C)nc1` [Compound 176, (5S)-1'-[7-[6-(dimethylamino)-3-pyridyl]-6-methyl-pyrazolo [1 ,5-a]pyrazin-4-yl]spiro[5,7-dihydrocyclopenta[b]pyridine-6,4'-piperidine]-5-amine] was run?
**A.** 0.006 µM

**Q.** For `Cc1nc(N2CCC3(CC2)Cc2ncccc2[C@H]3N)c2ccnn2c1-c1cccc(F)c1C#N` [Compound 180, 2-fluoro-6-[6-methyl-4-[(5S)-5-aminospiro[5,7-dihydrocyclopenta[b]pyridine-6,4'-piperidine]-1'-yl]pyrazolo[1,5-a]pyrazin-7-yl]benzonitrile], which IC50 is on record?
**A.** 0.039 µM

**Q.** How did the IC50 turn out when `Cc1nc(N2CCC3(CC2)Cc2ncc(F)cc2[C@H]3N)c2ccnn2c1-c1ccc2nccnc2c1Cl` [Compound 79, (5S)-1'-[7-(5-chloroquinoxalin-6-yl)-6-methyl-pyrazolo[1,5-a]pyrazin-4-yl]-3-fluoro-spiro[5,7-dihydrocyclopenta[b]pyridine-6,4'-piperidine]-5-amine hydrochloride] was run?
**A.** 0.01 µM

**Q.** How did the IC50 turn out when `Cc1cc2c(cn1)CC1(CCN(c3nc(C)c(-c4ccccc4)n4nccc34)CC1)[C@@H]2N` [Compound 114, (5S)-3-methyl-1'-(6-methyl-7-phenyl-pyrazolo[1,5-a]pyrazin-4-yl)spiro[5,7-dihydrocyclopenta[c]pyridine-6,4'-piperidine]-5-amine hydrochloride] was run?
**A.** 0.01 µM

**Q.** For `COc1ccc2c(c1)[C@@H](N)C1(CCN(c3nc(C)c(-c4ccncc4Cl)n4nccc34)CC1)C2` [Compound 119, hydrochloride], which IC50 is on record?
**A.** 0.004 µM

**Q.** Which IC50 does the source give for `Cc1nc(C)c(-c2c(C)nc(N3CCC4(CC3)Cc3ncccc3[C@H]4N)c3ccnn23)s1` [Compound 161, (5S)-1'-[7-(2,4-dimethylthiazol-5-yl)-6-methyl-pyrazolo[1,5-a]pyrazin-4-yl]spiro [5,7-dihydrocyclopenta[b]pyridine-6,4'-piperidine]-5-amine hydrochloride] here?
**A.** 0.029 µM

**Q.** How did the IC50 turn out when `Cc1nc(N2CCC3(CC2)Cc2ncccc2[C@H]3N)c2ccnn2c1-c1c(F)cccc1F` [Compound 115, (5S)-1'-[7-(2,6-difluorophenyl)-6-methyl-pyrazolo[1,5-a]pyrazin-4-yl]spiro[5,7-dihydrocyclopenta[b]pyridine-6,4'-piperidine]-5-amine] was run?
**A.** 0.011 µM
